Earlier results on one molecule are cited in patent EP3315966A1, “STANDARD THYROID GLAND HORMONE SOLUTION” (Fujirebio Inc., priority 2015, dated 2017).

The conditions of the series: buffer substance of the standard solution.

Take `O=S(=O)(O)CCCNC1CCCCC1` [CAPS, N-cyclohexyl-3-aminopropanesulfonic acid]: the pKa is reported as 10.4.
